Our source for the IC50 values is patent US12421229B2, “Hydropyrido[1,2-α]pyrazine compounds for the treatment of autoimmune disease” (Hoffmann-La Roche Inc., priority 2019, dated 2025).

pIC50: −log10 of the molar value.

In this assay the target is T1, human TLR8 (Homo sapiens, UniProt Q9NR97).
T1 construct: host or cells: HEK293 (HEK-Blue hTLR8)
T1 sequence (Q9NR97 27-1041): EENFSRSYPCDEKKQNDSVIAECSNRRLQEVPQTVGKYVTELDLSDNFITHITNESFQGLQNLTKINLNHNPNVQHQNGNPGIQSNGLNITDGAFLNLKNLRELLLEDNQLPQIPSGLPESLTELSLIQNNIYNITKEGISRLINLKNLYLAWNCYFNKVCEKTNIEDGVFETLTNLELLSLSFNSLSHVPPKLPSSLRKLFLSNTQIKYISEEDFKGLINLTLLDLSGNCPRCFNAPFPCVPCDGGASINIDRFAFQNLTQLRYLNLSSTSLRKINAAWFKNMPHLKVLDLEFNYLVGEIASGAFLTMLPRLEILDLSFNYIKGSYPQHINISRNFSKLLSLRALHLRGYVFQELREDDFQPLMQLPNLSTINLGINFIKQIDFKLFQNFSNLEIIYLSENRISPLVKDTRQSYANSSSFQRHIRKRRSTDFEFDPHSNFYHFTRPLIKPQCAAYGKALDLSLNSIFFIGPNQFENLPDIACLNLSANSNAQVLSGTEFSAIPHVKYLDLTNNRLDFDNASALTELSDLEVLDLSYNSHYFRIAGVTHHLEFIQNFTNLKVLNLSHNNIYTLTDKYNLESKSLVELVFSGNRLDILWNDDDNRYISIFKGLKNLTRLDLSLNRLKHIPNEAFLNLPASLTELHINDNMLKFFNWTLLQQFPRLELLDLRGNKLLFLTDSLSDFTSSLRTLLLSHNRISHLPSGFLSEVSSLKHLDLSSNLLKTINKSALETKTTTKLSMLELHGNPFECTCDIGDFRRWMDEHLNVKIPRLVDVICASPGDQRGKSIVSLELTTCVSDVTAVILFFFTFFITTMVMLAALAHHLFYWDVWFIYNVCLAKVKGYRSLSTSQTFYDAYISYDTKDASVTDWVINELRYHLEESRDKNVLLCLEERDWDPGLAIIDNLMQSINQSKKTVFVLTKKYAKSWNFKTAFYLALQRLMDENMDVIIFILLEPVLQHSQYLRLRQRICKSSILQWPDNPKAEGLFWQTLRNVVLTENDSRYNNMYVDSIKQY
Kind of assay: HEK293-Blue-hTLR-8 cells assay. The class given is cell-based. To be noted: HEK293-Blue-hTLR8 cells, R848 stimulation, 20 hrs, SEAP reporter; read-out: HEK/hTLR8 IC50. The source says:
A stable HEK293-Blue-hTLR-8 cell line was purchased from InvivoGen (Cat. #: hkb-htlr8, San Diego, California, USA). These cells were originally designed for studying the stimulation of human TLR8 by monitoring the activation of NF-κB. A SEAP (secreted embryonic alkaline phosphatase) reporter gene was placed under the control of the IFN-β minimal promoter fused to five NF-κB and AP-1-binding sites. The SEAP was induced by activating NF-κB and AP-1 via stimulating HEK-Blue hTLR8 cells with TLR8 ligands. Therefore the reporter expression was declined by TLR8 antagonist under the stimulation of a ligand, such as R848, for incubation of 20 hrs. The cell culture supernatant SEAP reporter activity was determined using QUANTI-Blue™ kit (Cat. #: rep-qb1, Invivogen, San Diego, Ca, USA) at a wavelength of 640 nm, a detection medium that turns purple or blue in the presence of alkaline phosphatase.
HEK293-Blue-hTLR8 cells were incubated at a density of 250,000˜450,000 cells/mL in a volume of 170 μL in a 96-well plate in Dulbecco's Modified Eagle's medium (DMEM) containing 4.5 g/L glucose, 50 U/mL penicillin, […], […], 2 mM L-glutamine, 10% (v/v) heat-inactivated fetal bovine serum with addition of 20 μL test compound in a serial dilution in the presence of final DMSO at 1% and 10 μL of 60 uM R848 in above DMEM, perform incubation under 37° C. in a CO2 incubator for 20 hrs. Then 20 μL of the supernatant from each well was incubated with 180 μL Quanti-blue substrate solution at 37° C. for 2 hrs and the absorbance was read at 620˜655 nm using a spectrophotometer. The signaling pathway that TLR8 activation leads to downstream NF-κB activation has been widely accepted, and therefore similar reporter assay was modified for evaluating TLR8 antagonist.

For the compound `CO[C@H]1CN(c2ccc([C@@H]3CCN4[C@@H](C3)CN(c3ccc(C#N)c5ncccc35)C[C@H]4C)cn2)C[C@@H]1N` [Example 6, 5-[(4R,8R,9aS)-8-[6-[(3S,4S)-3-amino-4-methoxy-pyrrolidin-1-yl]-3-pyridyl]-4-methyl-1,3,4,6,7,8,9,9a-octahydropyrido[1,2-a]pyrazin-2-yl]quinoline-8-carbonitrile], the pIC50 is 7.33. In the case of `C[C@@H]1CN(c2ccc(C#N)c3ncccc23)C[C@@H]2C[C@H](c3ccc([C@@H]4CNCCO4)cc3)CCN21` [Example 27, 5-[(4R,8R,9aS)-4-methyl-8-[4-[(2R)-morpholin-2-yl]phenyl]-1,3,4,6,7,8,9,9a-octahydropyrido[1,2-a]pyrazin-2-yl]quinoline-8-carbonitrile] it was 7.74; in that of `C[C@@H]1CN(c2ccc(C#N)c3ncccc23)C[C@@H]2C[C@@H](Oc3cnc(N4CCNCC4)nc3)CCN21` [Example 18, 5-[(4R,8S,9aS)-4-methyl-8-(2-piperazin-1-ylpyrimidin-5-yl)oxy-1,3,4,6,7,8,9,9a-octahydropyrido[1,2-a]pyrazin-2-yl]quinoline-8-carbonitrile], 8.22; in that of `C[C@@H]1CN(c2ccc(C#N)c3ncccc23)C[C@@H]2C[C@H](c3ccc(N4C[C@@H](N)[C@@H](F)C4)nc3)CCN21` [Example 19, 5-[(4R,8R,9aS)-8-[6-[(3R,4S)-3-amino-4-fluoro-pyrrolidin-1-yl]-3-pyridyl]-4-methyl-1,3,4,6,7,8,9,9a-octahydropyrido[1,2-a]pyrazin-2-yl]quinoline-8-carbonitrile], 7.20. Regarding `CO[C@@H]1CN(c2ccc([C@@H]3CCN4[C@@H](C3)CN(c3ccc(C#N)c5ncccc35)C[C@H]4C)cn2)C[C@@H]1N` [Example 13, 5-[(4R,8R,9aS)-8-[6-[(3S,4R)-3-amino-4-methoxy-pyrrolidin-1-yl]-3-pyridyl]-4-methyl-1,3,4,6,7,8,9,9a-octahydropyrido[1,2-a]pyrazin-2-yl]quinoline-8-carbonitrile], the pIC50 is 7.34. Turning to `C[C@@H]1CN(c2ccc(C#N)c3ncccc23)C[C@@H]2C[C@H](N3CC(c4ccc(N5CCNCC5)cc4)C3)CCN21` [Example 9, 5-[(4R,8R,9aS)-4-methyl-8-[3-(4-piperazin-1-ylphenyl)azetidin-1-yl]-1,3,4,6,7,8,9,9a-octahydropyrido[1,2-a]pyrazin-2-yl]quinoline-8-carbonitrile], the pIC50 is 7.44. As for `CO[C@H]1CN(c2ccc([C@@H]3CCN4[C@@H](C3)CN(c3ccc(C#N)c5ncccc35)C[C@H]4C)cn2)C[C@H]1N` [Example 12, 5-[(4R,8R,9aS)-8-[6-[(3R,4S)-3-amino-4-methoxy-pyrrolidin-1-yl]-3-pyridyl]-4-methyl-1,3,4,6,7,8,9,9a-octahydropyrido[1,2-a]pyrazin-2-yl]quinoline-8-carbonitrile], the pIC50 is 7.35.

Take `C[C@@H]1CN(c2ccc(C#N)c3ncccc23)C[C@@H]2C[C@H](c3ccc(N4CCOC[C@@H](N)C4)nc3)CCN21` [Example 23, 5-[(4R,8R,9aS)-8[6-[(6S)-6-amino-1,4-oxazepan-4-yl]-3-pyridyl]-4-methyl-1,3,4,6,7,8,9,9a-octahydropyrido[1,2-a]pyrazin-2-yl]quinoline-8-carbonitrile]: the pIC50 is 7.10.

Turning to `[2H]c1ccc2c(N3C[C@@H]4C[C@H](Nc5ccc(C[C@@H]6CNCCO6)cc5)CCN4[C@H](C)C3)ccc(C#N)c2n1` [Example 22, 5-[(4R,8R,9aS)-4-methyl-8-[4-[[(2R)-morpholin-2-yl]methyl]anilino]-1,3,4,6,7,8,9,9a-octahydropyrido[1,2-a]pyrazin-2-yl]-2-deuterio-quinoline-8-carbonitrile], the pIC50 was 7.31. With `C[C@@H]1CN(c2ccc(C#N)c3ncccc23)C[C@@H]2C[C@@H](Oc3ccc(N4CCNCC4)cn3)CCN21` [Example 11, 5-[(4R,8S,9aS)-4-methyl-8-[(5-piperazin-1-yl-2-pyridyl)oxy]-1,3,4,6,7,8,9,9a-octahydropyrido[1,2-a]pyrazin-2-yl]quinoline-8-carbonitrile], the pIC50 was 7.82. Turning to `C[C@@H]1CN(c2ccc(C#N)c3ncccc23)C[C@@H]2C[C@@H](c3ccc(CC4CNCCO4)cc3)CCN21` (stereo partly drawn) [Example 26, 5-[(4R,8S,9aS)-4-methyl-8-[4-(morpholin-2-ylmethyl)phenyl]-1,3,4,6,7,8,9,9a-octahydropyrido[1,2-a]pyrazin-2-yl]quinoline-8-carbonitrile], the pIC50 is 7.57. Consider `C[C@@H]1CN(c2ccc(C#N)c3ncccc23)C[C@@H]2CC(c3ccc(C[C@@H]4CNCCO4)cc3)CCN21` (stereo in doubt) [Example 25, 5-[(4R,8R,9aS)-4-methyl-8-[4-[[(2R)-morpholin-2-yl]methyl]phenyl]-1,3,4,6,7,8,9,9a-octahydropyrido[1,2-a]pyrazin-2-yl]quinoline-8-carbonitrile], for which the pIC50 is 7.52. For the compound `[2H]c1ccc2c(N3C[C@@H]4C[C@H](N5CCN(c6ccncc6)CC5)CCN4[C@H](C)C3)ccc(C#N)c2n1` [Example 37, 5-[(4R,8R,9aS)-4-methyl-8-[4-(4-pyridyl)piperazin-1-yl]-1,3,4,6,7,8,9,9a-octahydropyrido[1,2-a]pyrazin-2-yl]-2-deuterio-quinoline-8-carbonitrile], the pIC50 was 6.94. In the case of `C[C@@H]1CN(c2ccc(C#N)c3ncccc23)C[C@@H]2C[C@H](Nc3ccc([C@H]4CNCCO4)cc3)CCN21` [Example 20, 5-[(4R,8R,9aS)-4-methyl-8-[4-[(2S)-morpholin-2-yl]anilino]-1,3,4,6,7,8,9,9a-octahydropyrido[1,2-a]pyrazin-2-yl]quinoline-8-carbonitrile] it was 7.30; in that of `C[C@@H]1CN(c2ccc(C#N)c3ncccc23)C[C@@H]2C[C@@H](Oc3cncc(N4CCNCC4)c3)CCN21` [Example 29, 5-[(4R,8S,9aS)-4-methyl-8-[(5-piperazin-1-yl-3-pyridyl)oxy]-1,3,4,6,7,8,9,9a-octahydropyrido[1,2-a]pyrazin-2-yl]quinoline-8-carbonitrile], 8.30. With `CO[C@@H]1CN(c2ccc([C@@H]3CCN4[C@@H](C3)CN(c3ccc(C#N)c5ncccc35)C[C@H]4C)cn2)C[C@H]1N` [Example 14, 5-[(4R,8R,9aS)-8-[6-[(3R,4R)-3-amino-4-methoxy-pyrrolidin-1-yl]-3-pyridyl]-4-methyl-1,3,4,6,7,8,9,9a-octahydropyrido[1,2-a]pyrazin-2-yl]quinoline-8-carbonitrile], the pIC50 is 7.32. With `C[C@@H]1CN(c2ccc(C#N)c3ncccc23)CC2C[C@H](c3ccc(N4CCNCC4)cc3)CCN21` (stereo partly drawn) [Example 3, 5-[(4R,8R)-4-methyl-8-(4-piperazin-1-ylphenyl)-1,3,4,6,7,8,9,9a-octahydropyrido[1,2-a]pyrazin-2-yl]quinoline-8-carbonitrile], the pIC50 is 7.64.

Regarding `CO[C@H]1CN(c2ccc(C3CN([C@@H]4CCN5[C@@H](C4)CN(c4ccc(C#N)c6ncccc46)C[C@H]5C)C3)cc2)C[C@H]1N` [Example 32, 5-[(4R,8R,9aS)-8-[3-[4-[(3R,4S)-3-amino-4-methoxy-pyrrolidin-1-yl]phenyl]azetidin-1-yl]-4-methyl-1,3,4,6,7,8,9,9a-octahydropyrido[1,2-a]pyrazin-2-yl]quinoline-8-carbonitrile], the pIC50 was 7.54.
